Data: patent publication US9089570B2, “Compositions for treating cancers having acquired resitance to prior chemotherapeutic and targeted drugs using carboxyamidotriazole orotate” (TACTICAL THERAPEUTICS INC, priority 2013, dated 2015)

Columns and labels:
[1] = test system: imatinib mesylate-resistant chronic myeloid leukemia cells; settings: by down-regulating bcr-abl, Alessandro et al, 2008; cited from earlier work
[2] = test system: refractory renal cell carcinoma; test: Phase I clinical study of CTO, patient with refractory renal cell carcinoma; format: in vivo, human; settings: 75 mg/m2/day
Protocol: (§1) This invention contemplates treating these cancers and other cancers at any stage from the discovery of the cancer to the advanced stage, starting with the first step of carrying out the genotyping of the primary and secondary tumors. The effectiveness of the CTO treatment is determined by controlled clinical studies. The cancers are evaluated by measuring tumors no more than 14 days before the start of the treatment, and evaluated after 2 cycles of 28 days after day 1 of the administration of the first dose of CTO. The tumor size is measured by the most accurate measurement such as PET-CT, CT scan, MRI scan, x-ray, ultrasound, etc. […]
(§2) “Partial response” means a) for bidimensionally measurable tumors, a decrease of at least 50% in the sum of the products of the largest perpendicular diameters of all measurable tumors as determined by two observations not less than four weeks apart, b) for undimensionally measurable tumors, a decrease by at least 50% in the sum of the largest diameters of all tumors as determined by two observation not less than four weeks apart. […]
After having established the baseline clinical parameters, the patient was given 75 mg/m2/day for a period of 28 days for two cycles and the tumor was measured. […]

[3] = test system: refractory NSCLC tumor (EGFR, ELREATS 746-752 V (exon 19)); test: Phase I clinical study of CTO, patient with refractory NSCLC (EGFR exon 19); format: in vivo, human; settings: EGFR exon 19 mutation, 219 mg/m2/day
Protocol: as §1, with “etc. The criteria for evaluating response are described in the revised Response Evaluation Criteria in Solid Tumors Guidelines, Eisenhauer et al, 1990 and by the Macdonald Criteria for response to high grade gliomas, Macdonald et al, 1990.” for “etc.”
as §2

[4] = test system: refractory NSCLC tumor (PI3KCA, E545K); test: Phase I clinical study of CTO, patient with refractory NSCLC (PI3KCA, E545K); format: in vivo, human; settings: 219 mg/m2/day
Protocol: as §1, §2
In the present invention, a patient with NSCLC who had received prior treatment with paclitaxel, carboplatin erlotinib and docetaxel. […] After having established the baseline clinical parameters, the patient was given 219 mg/m2/day for a period of 28 days for two cycles and the tumor was measured. […]

[5] = test system: Akt and Erk1/2 phosphorylation; settings: exosomes-stimulated HUVEC cell; Corrado et al, 2012; cited from earlier work
[6] = test system: refractory head and neck tumor (PI3KCA, E545K); test: Phase I clinical study of CTO, patient with refractory head and neck cancer; format: in vivo, human; settings: 285 mg/m2/day
Text: “Progressive disease” is defined as an increase of 25% or greater in the product of the largest perpendicular diameters for at least one bidimensionally measurable tumor, or an increase of 25% or greater at least one undimensionally measurable tumor or appearance of a new lesion or clinical deterioration. […]

[7] = test system: refractory metastatic colorectal cancer (BRAF V660E); test: Phase I clinical study of CTO, patient with refractory metastatic colorectal cancer; format: in vivo, human; settings: 285 mg/m2/day
Protocol: as §1, §2
After having established the baseline clinical parameters, the patient was given 285 mg/m2/day for a period of 28 days for two cycles and the tumor was measured. […]

[8] = FOLFIRI (fluorouracil, leucovorin, irinotecan) regimen; Carrato et al 2013; cited from earlier work
head and neck cancer = settings: cited from earlier work

NC(=O)c1nnn(Cc2cc(Cl)c(C(=O)c3ccc(Cl)cc3)c(Cl)c2)c1N [CAI, Carboxyamidotriazole]
apoptosis [1]: induces apoptosis

NC(=O)c1nnn(Cc2cc(Cl)c(C(=O)c3ccc(Cl)cc3)c(Cl)c2)c1N.O=C(O)c1cc(=O)[nH]c(=O)[nH]1 [CTO, carboxyamidotriazole orotate]
duration of stable disease and partial response ([2]; 28-day cycles, CTO continued): over twelve
tumor response measured after two cycles ([2]; prior IL-2, pegylated IFN, sorafenib, sunitnib, erlotinib, torisel, 28 days, two cycles): responded by not progressing
duration of stable disease and partial response ([3]; 28-day cycles): more than twelve
tumor response measured after two cycles ([3]; prior carboplatin, paclitaxel, docetaxel, erlotinib, cisplatin, gemcitamide, premetrexed, 28 days, two cycles): responded by not progressing
duration of stable disease and partial response ([4]; 28-day cycles): more than twelve
tumor response measured after two cycles ([4]; prior paclitaxel, carboplatin, erlotinib, docetaxel, 28 days, two cycles): responded by not progressing
Akt and Erk1/2 phosphorylation [5]: inhibits
duration of stable disease and partial response ([6]; 28-day cycles): more than six
tumor response measured after two cycles ([6]; PI3KCA E545K, prior cetuximab, cisplatin, taxotere, 28 days, two cycles): responded by not progressing
duration of stable disease and partial response ([7]; 28-day cycles): six
tumor response measured after two cycles ([7]; prior leucovorin, fluorouracil, oxaliplatin, bevacizumab, cetuximab, capecitabine, panitumumab, irinotecan, 28 days, two cycles): responded to CTO by not progressing

CCN(CC)CCNC(=O)c1c(C)[nH]c(/C=C2\C(=O)Nc3ccc(F)cc32)c1C [Sunitnib]
superiority over FOLFIRI alone [8]: did not prove superior over FOLFIRI alone

C#Cc1cccc(Nc2ncnc3cc(OCCOC)c(OCCOC)cc23)c1 [erlotinib]
improvement when added to chemotherapy and radiotherapy (head and neck cancer): no improvement
